± gives the expanded uncertainty stated by the source.
Columns and labels:
[1] = xn = mol fraction of the nth substance listed; conditions: 298.15 K, 101.3 kPa, Liquid; for mass density: Vibrating tube method
[2] = refractive index (Na D-line) (dimensionless); xn = mol fraction of the nth substance listed; conditions: 298.15 K, 101.3 kPa, Liquid, Standard Abbe refractometry
[3] = 298.15 K, 101.3 kPa, Liquid; for mass density: Vibrating tube method
[4] = refractive index (Na D-line) (dimensionless); conditions: 298.15 K; 101.33 kPa; Liquid; Standard Abbe refractometry

For `CCOS(=O)(=O)[O-].CC[n+]1cccc(C)c1` [1-ethyl-3-methylpyridinium ethylsulfate] + CCCO, the mass density ([1]; x2 = 0) was 1222.2 ± 8.1 kg/m3, the mass density ([1]; x2 = 0.0863) was 1208.44 ± 6.6 kg/m3 and the mass density ([1]; x2 = 0.1279) was 1201.22 ± 6 kg/m3. It also gave a mass density ([1]; x2 = 0.2201) of 1183.56 ± 4.6 kg/m3, a mass density ([1]; x2 = 0.3243) of 1160.24 ± 3.4 kg/m3 and a mass density ([1]; x2 = 0.4177) of 1135.68 ± 2.4 kg/m3. It also gave a mass density ([1]; x2 = 0.5126) of 1106.18 ± 1.6 kg/m3, a mass density ([1]; x2 = 0.6093) of 1069.97 ± 1.1 kg/m3 and a mass density ([1]; x2 = 0.7176) of 1019.9 ± 0.71 kg/m3. For the same molecule, the mass density ([1]; x2 = 0.824) was 956.78 ± 0.57 kg/m3, the mass density ([1]; x2 = 0.8834) was 913.04 ± 0.55 kg/m3 and the mass density ([1]; x2 = 0.9658) was 837.78 ± 0.53 kg/m3. The viscosity ([1]; x2 = 0) was 161.4 ± 27 mPa·s, the viscosity ([1]; x2 = 0.0863) was 126.4 ± 17 mPa·s and the viscosity ([1]; x2 = 0.1279) was 112.4 ± 13 mPa·s. It also gave a viscosity ([1]; x2 = 0.2201) of 85.83 ± 7 mPa·s, a viscosity ([1]; x2 = 0.3243) of 62.26 ± 2.6 mPa·s and a viscosity ([1]; x2 = 0.4177) of 48.86 ± 2 mPa·s. The viscosity ([1]; x2 = 0.5126) was 34.16 ± 1.3 mPa·s, the viscosity ([1]; x2 = 0.6093) was 24.62 ± 0.93 mPa·s and the viscosity ([1]; x2 = 0.7176) was 16.27 ± 0.61 mPa·s. The viscosity ([1]; x2 = 0.824) was 9.9 ± 0.38 mPa·s, the viscosity ([1]; x2 = 0.8834) was 7.027 ± 0.29 mPa·s and the viscosity ([1]; x2 = 0.9658) was 3.411 ± 0.15 mPa·s. For the same molecule, the refractive index ([2]; x2 = 0) was 1.50666 ± 0.0012, the refractive index ([2]; x2 = 0.0863) was 1.50223 ± 0.0011 and the refractive index ([2]; x2 = 0.1279) was 1.5002 ± 0.0011. It also gave a refractive index ([2]; x2 = 0.2201) of 1.49524 ± 0.001, a refractive index ([2]; x2 = 0.3243) of 1.48866 ± 0.00096 and a refractive index ([2]; x2 = 0.4177) of 1.48167 ± 0.0009. The refractive index ([2]; x2 = 0.5126) was 1.47321 ± 0.00084, the refractive index ([2]; x2 = 0.6093) was 1.4627 ± 0.00079 and the refractive index ([2]; x2 = 0.7176) was 1.44818 ± 0.00074. It also gave a refractive index ([2]; x2 = 0.824) of 1.4297 ± 0.0007, a refractive index ([2]; x2 = 0.8834) of 1.41684 ± 0.00069 and a refractive index ([2]; x2 = 0.9658) of 1.39459 ± 0.00068.
`CCCO` [propan-1-ol] showed a viscosity [3] of 2.017 ± 0.093 mPa·s, a mass density [3] of 799.5 ± 0.53 kg/m3 and a refractive index [4] of 1.3837 ± 0.00068.
Molecule `CCCO` [propan-1-ol] + CCOS(=O)(=O)[O-].CC[n+]1cccc(C)c1 has a mass density ([1]; x1 = 1) of 799.5 ± 0.53 kg/m3, a viscosity ([1]; x1 = 1) of 2.017 ± 0.093 mPa·s and a refractive index ([2]; x1 = 1) of 1.3837 ± 0.00068.
Molecule `CCOS(=O)(=O)[O-].CC[n+]1cccc(C)c1` [1-ethyl-3-methylpyridinium ethylsulfate] has a viscosity [3] of 161.4 ± 27 mPa·s, a mass density [3] of 1222.2 ± 8.1 kg/m3 and a refractive index [4] of 1.50666 ± 0.0012.

From the NIST ThermoML archive (doi:10.1021/je8009732)
